In PubChem BioAssay (NCI):
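Five concentrations, 48 hours, 96-well plates. TGI: total growth inhibition.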

Legend:
Experiment in all cases: NCI tumour cell line growth inhibition, 48 h
U251 CNS = system: U251 CNS
HT29 colon = system: HT29 colon
NCI-H460 lung = system: NCI-H460 lung
EKVX NSCLC = system: EKVX NSCLC
HCT-116 colon = system: HCT-116 colon
RPMI-8226 leukemia = system: RPMI-8226 leukemia
HS 578T breast = system: HS 578T breast
COLO 205 colon = system: COLO 205 colon
SNB-19 CNS = system: SNB-19 CNS
MDA-N = system: MDA-N
OVCAR-4 ovarian = system: OVCAR-4 ovarian
HOP-62 NSCLC = system: HOP-62 NSCLC
PC-3 prostate = system: PC-3 prostate
SK-MEL-2 melanoma = system: SK-MEL-2 melanoma
DU-145 prostate = system: DU-145 prostate
M14 melanoma = system: M14 melanoma
SNB-75 CNS = system: SNB-75 CNS
NCI-H522 lung = system: NCI-H522 lung
MCF7 breast = system: MCF7 breast
SF-268 CNS = system: SF-268 CNS
SF-539 CNS = system: SF-539 CNS
OVCAR-3 ovarian = system: OVCAR-3 ovarian
CAKI-1 renal = system: CAKI-1 renal
HL-60(TB) leukemia = system: HL-60(TB) leukemia
CCRF-CEM leukemia = system: CCRF-CEM leukemia
OVCAR-8 ovarian = system: OVCAR-8 ovarian
K-562 leukemia = system: K-562 leukemia
NCI/ADR-RES ovarian = system: NCI/ADR-RES ovarian
MALME-3M melanoma = system: MALME-3M melanoma
KM12 colon = system: KM12 colon
LOX IMVI melanoma = system: LOX IMVI melanoma
SK-MEL-28 melanoma = system: SK-MEL-28 melanoma
BT-549 breast = system: BT-549 breast
ACHN renal = system: ACHN renal
HOP-92 NSCLC = system: HOP-92 NSCLC
NCI-H226 lung = system: NCI-H226 lung
RXF 393 renal = system: RXF 393 renal
IGROV1 ovarian = system: IGROV1 ovarian
HCT-15 colon = system: HCT-15 colon
NCI-H23 lung = system: NCI-H23 lung
T-47D breast = system: T-47D breast
UO-31 renal = system: UO-31 renal
OVCAR-5 ovarian = system: OVCAR-5 ovarian
SK-OV-3 ovarian = system: SK-OV-3 ovarian
MDA-MB-231 breast = system: MDA-MB-231 breast
SN12C renal = system: SN12C renal
TK-10 renal = system: TK-10 renal
786-0 renal = system: 786-0 renal
MDA-MB-435 = system: MDA-MB-435
SK-MEL-5 melanoma = system: SK-MEL-5 melanoma
MOLT-4 leukemia = system: MOLT-4 leukemia
SW-620 colon = system: SW-620 colon
SF-295 CNS = system: SF-295 CNS
HCC-2998 colon = system: HCC-2998 colon
A549 NSCLC = system: A549 NSCLC
UACC-62 melanoma = system: UACC-62 melanoma
UACC-257 melanoma = system: UACC-257 melanoma
SR leukemia = system: SR leukemia
A498 renal = system: A498 renal

## COc1cc(N(CCC#N)CCC#N)ccc1/C(N=Nc1ccccc1)=N/NC(=O)c1cc(Br)ccc1O
U251 CNS
  TGI: > 100 µM
HT29 colon
  TGI: 71.4 µM
NCI-H460 lung
  TGI: 51.1 µM
EKVX NSCLC
  TGI: 69.2 µM
HCT-116 colon
  TGI: 44.1 µM
RPMI-8226 leukemia
  TGI: 44.6 µM
HS 578T breast
  TGI: > 100 µM
COLO 205 colon
  TGI: 29.8 µM
SNB-19 CNS
  TGI: > 100 µM
MDA-N
  TGI: > 100 µM
OVCAR-4 ovarian
  TGI: 64.4 µM
HOP-62 NSCLC
  TGI: 95.5 µM
PC-3 prostate
  TGI: > 100 µM
SK-MEL-2 melanoma
  TGI: 85.1 µM
DU-145 prostate
  TGI: 74.3 µM
M14 melanoma
  TGI: > 100 µM
SNB-75 CNS
  TGI: > 100 µM
NCI-H522 lung
  TGI: 67.9 µM
MCF7 breast
  TGI: 55.5 µM
SF-268 CNS
  TGI: > 100 µM
SF-539 CNS
  TGI: 83.7 µM
OVCAR-3 ovarian
  TGI: 83.5 µM
CAKI-1 renal
  TGI: 61.4 µM
HL-60(TB) leukemia
  TGI: 36.6 µM
CCRF-CEM leukemia
  TGI: 33.2 µM
OVCAR-8 ovarian
  TGI: > 100 µM
K-562 leukemia
  TGI: 42.7 µM
NCI/ADR-RES ovarian
  TGI: > 100 µM
MALME-3M melanoma
  TGI: > 100 µM
KM12 colon
  TGI: > 100 µM
LOX IMVI melanoma
  TGI: 65.1 µM
SK-MEL-28 melanoma
  TGI: 87.6 µM
BT-549 breast
  TGI: 65.2 µM
ACHN renal
  TGI: 81.6 µM
HOP-92 NSCLC
  TGI: 68.6 µM
NCI-H226 lung
  TGI: > 100 µM
RXF 393 renal
  TGI: 70.9 µM
IGROV1 ovarian
  TGI: 35 µM
HCT-15 colon
  TGI: 68.2 µM
NCI-H23 lung
  TGI: 49.8 µM
T-47D breast
  TGI: 57.8 µM
UO-31 renal
  TGI: 57.5 µM
OVCAR-5 ovarian
  TGI: > 100 µM
SK-OV-3 ovarian
  TGI: > 100 µM
MDA-MB-231 breast
  TGI: 62.6 µM
SN12C renal
  TGI: 96.6 µM
TK-10 renal
  TGI: > 100 µM
786-0 renal
  TGI: > 100 µM
MDA-MB-435
  TGI: > 100 µM
SK-MEL-5 melanoma
  TGI: 42.3 µM
MOLT-4 leukemia
  TGI: 38.3 µM
SW-620 colon
  TGI: > 100 µM
SF-295 CNS
  TGI: > 100 µM
HCC-2998 colon
  TGI: 48 µM
A549 NSCLC
  TGI: > 100 µM
UACC-62 melanoma
  TGI: 46.7 µM
UACC-257 melanoma
  TGI: 62.8 µM
SR leukemia
  TGI: 43.7 µM

## COc1cccc2[nH]c(-c3ccccn3)nc12
U251 CNS
  TGI: > 100 µM
HT29 colon
  TGI: > 100 µM
NCI-H460 lung
  TGI: > 100 µM
EKVX NSCLC
  TGI: > 100 µM
HCT-116 colon
  TGI: > 100 µM
RPMI-8226 leukemia
  TGI: > 100 µM
HS 578T breast
  TGI: > 100 µM
COLO 205 colon
  TGI: > 100 µM
SNB-19 CNS
  TGI: > 100 µM
MDA-N
  TGI: > 100 µM
OVCAR-4 ovarian
  TGI: > 100 µM
HOP-62 NSCLC
  TGI: > 100 µM
PC-3 prostate
  TGI: > 100 µM
SK-MEL-2 melanoma
  TGI: > 100 µM
DU-145 prostate
  TGI: > 100 µM
M14 melanoma
  TGI: > 100 µM
SNB-75 CNS
  TGI: > 100 µM
NCI-H522 lung
  TGI: > 100 µM
MCF7 breast
  TGI: > 100 µM
SF-268 CNS
  TGI: > 100 µM
SF-539 CNS
  TGI: > 100 µM
OVCAR-3 ovarian
  TGI: > 100 µM
CAKI-1 renal
  TGI: > 100 µM
OVCAR-8 ovarian
  TGI: > 100 µM
K-562 leukemia
  TGI: > 100 µM
NCI/ADR-RES ovarian
  TGI: 73.8 µM
MALME-3M melanoma
  TGI: > 100 µM
KM12 colon
  TGI: > 100 µM
LOX IMVI melanoma
  TGI: > 100 µM
SK-MEL-28 melanoma
  TGI: > 100 µM
BT-549 breast
  TGI: > 100 µM
A498 renal
  TGI: > 100 µM
ACHN renal
  TGI: > 100 µM
HOP-92 NSCLC
  TGI: > 100 µM
NCI-H226 lung
  TGI: > 100 µM
RXF 393 renal
  TGI: > 100 µM
IGROV1 ovarian
  TGI: > 100 µM
HCT-15 colon
  TGI: > 100 µM
NCI-H23 lung
  TGI: > 100 µM
T-47D breast
  TGI: > 100 µM
UO-31 renal
  TGI: > 100 µM
OVCAR-5 ovarian
  TGI: > 100 µM
SK-OV-3 ovarian
  TGI: > 100 µM
MDA-MB-231 breast
  TGI: > 100 µM
SN12C renal
  TGI: > 100 µM
TK-10 renal
  TGI: > 100 µM
786-0 renal
  TGI: > 100 µM
MDA-MB-435
  TGI: > 100 µM
SK-MEL-5 melanoma
  TGI: > 100 µM
SW-620 colon
  TGI: > 100 µM
SF-295 CNS
  TGI: > 100 µM
HCC-2998 colon
  TGI: > 100 µM
A549 NSCLC
  TGI: > 100 µM
UACC-62 melanoma
  TGI: > 100 µM
UACC-257 melanoma
  TGI: > 100 µM
SR leukemia
  TGI: > 100 µM

## O=C(CCN1CCOCC1)Nc1ccc2sc3ccccc3c(=O)c2n1
U251 CNS
  TGI: > 100 µM
HT29 colon
  TGI: > 100 µM
NCI-H460 lung
  TGI: > 100 µM
EKVX NSCLC
  TGI: > 100 µM
HCT-116 colon
  TGI: > 100 µM
RPMI-8226 leukemia
  TGI: > 100 µM
HS 578T breast
  TGI: > 100 µM
COLO 205 colon
  TGI: > 100 µM
SNB-19 CNS
  TGI: > 100 µM
MDA-N
  TGI: > 100 µM
OVCAR-4 ovarian
  TGI: > 100 µM
HOP-62 NSCLC
  TGI: > 100 µM
PC-3 prostate
  TGI: > 100 µM
SK-MEL-2 melanoma
  TGI: > 100 µM
DU-145 prostate
  TGI: > 100 µM
M14 melanoma
  TGI: > 100 µM
SNB-75 CNS
  TGI: 85.1 µM
NCI-H522 lung
  TGI: 45.9 µM
MCF7 breast
  TGI: > 100 µM
SF-268 CNS
  TGI: > 100 µM
SF-539 CNS
  TGI: > 100 µM
OVCAR-3 ovarian
  TGI: > 100 µM
CAKI-1 renal
  TGI: 63.8 µM
HL-60(TB) leukemia
  TGI: > 100 µM
CCRF-CEM leukemia
  TGI: > 100 µM
OVCAR-8 ovarian
  TGI: > 100 µM
K-562 leukemia
  TGI: > 100 µM
NCI/ADR-RES ovarian
  TGI: > 100 µM
MALME-3M melanoma
  TGI: 85.2 µM
KM12 colon
  TGI: > 100 µM
LOX IMVI melanoma
  TGI: > 100 µM
SK-MEL-28 melanoma
  TGI: > 100 µM
BT-549 breast
  TGI: > 100 µM
ACHN renal
  TGI: > 100 µM
HOP-92 NSCLC
  TGI: > 100 µM
IGROV1 ovarian
  TGI: > 100 µM
HCT-15 colon
  TGI: > 100 µM
NCI-H23 lung
  TGI: > 100 µM
T-47D breast
  TGI: > 100 µM
UO-31 renal
  TGI: > 100 µM
OVCAR-5 ovarian
  TGI: > 100 µM
SK-OV-3 ovarian
  TGI: > 100 µM
MDA-MB-231 breast
  TGI: > 100 µM
SN12C renal
  TGI: > 100 µM
TK-10 renal
  TGI: > 100 µM
786-0 renal
  TGI: > 100 µM
MDA-MB-435
  TGI: > 100 µM
SK-MEL-5 melanoma
  TGI: 82.5 µM
SW-620 colon
  TGI: > 100 µM
SF-295 CNS
  TGI: > 100 µM
HCC-2998 colon
  TGI: > 100 µM
A549 NSCLC
  TGI: > 100 µM
UACC-62 melanoma
  TGI: > 100 µM
UACC-257 melanoma
  TGI: > 100 µM
SR leukemia
  TGI: > 100 µM
